# Measurements from patent US7247441B2, “Nucleic acid sequence and protein in addition to polypeptides coding for mannitol dehydrogenases or parts thereof and the production and use thereof in diagnosis and therapy” (Biomay Produktions- Und Handels-Aktienge Sellschaft, priority 2002, dated 2007).
# Biological target: T1, Cladosporium herbarum mannitol dehydrogenase (Cladosporium herbarum, UniProt P0C0Y5)
# T1 construct: the enzyme activity was determined with the traditionally purified protein; from tissue; host or cells: Cladosporium herbarum extract (ammonium sulfate precipitation, HIC, anion exchange)
# Experiment: Enzyme activity determination, absorption of NADPH at 340 nm
# Assay type: biochemical
# Procedure: The experiments reveal that the highly purified major allergen of Cladosporium herbarum is indeed a mannitol dehydrogenase which catalyzes the following metabolic reaction: Fructose+NADPH+H^+ ? mannitol+NADP^+. […] The method of the activity determination is described in example 3.
# To confirm the results according to the invention, the enzyme activity was determined with the traditionally purified protein. The absorption of NADPH was measured in a photometer at 340 nm.
# • 50 mM Tris-HCl, pH 7.5 • 0.25 mM NADPH or NADH • D-fructose or fructose-6-phosphate (0.1; 0.2; 0.4; 0.6; 0.8; 1.0; 1.2 M) • H2O to 1 ml • the reaction is started with 0.5 μl of MtDH Results: • Reaction with fructose and NADPH • No reaction with fructose-6-phosphate and NADH
# T1 sequence (P0C0Y5 whole entry): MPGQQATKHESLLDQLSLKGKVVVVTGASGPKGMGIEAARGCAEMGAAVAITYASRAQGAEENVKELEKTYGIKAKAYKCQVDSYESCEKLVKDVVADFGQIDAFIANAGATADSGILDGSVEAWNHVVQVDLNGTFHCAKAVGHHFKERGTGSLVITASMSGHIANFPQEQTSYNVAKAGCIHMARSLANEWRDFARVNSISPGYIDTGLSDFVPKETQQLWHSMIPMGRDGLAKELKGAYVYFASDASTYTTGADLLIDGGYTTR
Structure (SMILES),activity as cosubstrate or substrate of the mannitol dehydrogenase,effect on the reaction fructose + NADPH to mannitol + NADP+
NC(=O)C1=CN([C@@H]2O[C@H](COP(=O)(O)OP(=O)(O)OC[C@H]3O[C@@H](n4cnc5c(N)ncnc54)[C@H](O)[C@@H]3O)[C@@H](O)[C@H]2O)C=CC1 [NADH],not active as cosubstrate,–
O=C(CO)[C@@H](O)[C@H](O)[C@H](O)COP(=O)(O)O [fructose-6-phosphate],not active as substrate,inhibitory effect
